# Laboratory results: publication PMC6264397, “Interaction of the Main Components from the Traditional Chinese Drug Pair Chaihu-Shaoyao Based on Rat Intestinal Absorption” (Molecules, 2011)
# Where “and” joins values, the source holds several entries; their conditions need not be identical. Equal values may be shown once. Read-outs that look alike come from different tables or passages of the source.
# Tests used:
# rat intestine = test: four-site single-pass perfused rat intestinal model; format: in vivo; design: P*eff Duodenum / P*eff Jejunum / P*eff Ileum: unit not given here
# Method: The absorptions of SSA, SSD and paeoniflorin in different intestinal segments were studied by the rat intestinal perfusion model. The concentrations of all the compounds of interest were 20 μmol·L^−1. The concentrations of the compounds in the perfusate samples were analyzed by UPLC or LC/MS, and then the P*eff and […] of SSA, SSD and paeoniflorin were calculated.
# The perfusion protocol was approved by the Animal Ethics Committee of Jiangsu Provincial Academy of Chinese Medicine. The intestinal surgical procedures were described in our previous publications. Briefly, rats were anesthetized with an intra-muscular injection of urethane (0.5 g mL^−1) and placed on a heated surface maintained at its normal body temperature. Four segments of intestine, duodenum, jejunum, ileum, and colon (8–12 cm) were simultaneously cannulated with no disruption of circulation to the intestine, each with two cannulae. After cannulation, the small intestinal segments were placed carefully into the abdominal cavity, avoiding crimping or kinking of the segments. To keep the temperature of the perfusate constant, the inlet cannulate was kept warm by a 37 °C circulating water bath.
# This is a single-pass perfusion method. Four segments of the intestine (duodenum, upper jejunum, terminal ileum, and colon) were perfused simultaneously with a perfusate containing the compound of interest using an infusion pump (Harvard Apparatus, Cambridge, MA, USA) at a flow rate of 0.2 mL min^−1. After a 30-min washout period, which is usually sufficient to achieve the steady-state absorption, four samples were collected from the outlet cannulae every 30 min afterward. After perfusion, the length of the intestine was measured as described previously. The outlet concentrations of the test compounds in the luminal perfusate were determined by HPLC or LC/MS.
# The outlet concentrations of SSA and SSD were determined by LC/MS using a HPLC-Agilent 6410 Triple Quad (Agilent, Palo Alto, CA, USA) system equipped with an atmospheric-pressure chemical ionization source. The samples were separated on a Zorbax SB-C18 column (250 mm × 4.6 mm, 5 μm, Agilent) and Zorbax SB-C18 precolumn (4.6 × 12.5 mm, […], Agilent). The mobile phase consisted of acetonitrile and water (40:60, v/v), and the flow rate was 0.4 mL·min^−1. The column temperature was maintained at 35 °C and the injection volume was 20 μL. For MS analysis, atmospheric-pressure chemical ionization (APCI) source was operated in the negative ion mode. The selected parameters were as follows: drying nitrogen gas at 350 °C and a flow-rate of […]; nebulizer pressure at 20 p.s.i.g. (1 p.s.i. = 6894.76 Pa); vaporizer temperature at 325 °C; capillary voltage at 4,500 V and corona current at 4 μA. The chromatograms obtained for quantitation were recorded under time-scheduled SIM, with fragmentor voltages was set at 150 V. The scan range was from m/z 250 to m/z 1,000. The instrument was programmed for a scan dwell time of 200 ms. Intense […] ions at m/z 781 and m/z 255 were shown for SSA (SSD) and chrysin(internal standard). In general, these methods were selective and reproducible with day to day variability of less than 3%. The tested linear response range for SSA and SSD was 0.625 to 80 μM. The accuracy and precision were greater than 98%. The recovery of three different concentrations was around 90.91%~92.66%, and RSD was less than 5% (n = 5).
# UPLC was used to analyze the concentration of paeoniflorin in the perfusate samples. The conditions were as follows: Waters Acquity™ system, with diode array detector and Empower software; column, Acquity UPLC BEH C-18 1.7 μm, 50 × 2.1 mm, (Waters, Milford, MA, USA); mobile phase A, water; mobile phase B, acetonitrile; gradient, 0~0.8 min, 15~22% B, 0.8~1.0 min, 22% B, 1.0~1.5 min, 35% B, 1.5~2.2 min, 70% B; flow rate, 0.4 mL·min^−1; wavelength 230 nm (paeoniflorin) and 245 nm (testosterone, the internal standard); column temperature, 35 °C; injection volume, 10 μL. […]
# Caco-2 cell = system: Caco-2 cell; design: method as in earlier work; conditions: cited from earlier work
# [1] = co-administrated with SSA, colon
# [2] = co-administrated with SSA, ileum
# [3] = co-administration with SSD, colon
# [4] = co-administration with SSD, ileum
# [5] = compound alone, 20 μmol·L−1, colon, n = 4
# [6] = compound alone, 20 μmol·L−1, duodenum, n = 4
# [7] = compound alone, 20 μmol·L−1, ileum, n = 4
# [8] = compound alone, 20 μmol·L−1, jejunum, n = 4
compound,measurement,setting,value
"C[C@@]12C[C@@]3(O)O[C@@H](O1)[C@]1(COC(=O)c4ccccc4)[C@H]3C[C@@]12O[C@@H]1O[C@H](CO)[C@@H](O)[C@H](O)[C@H]1O [Paeoniflorin, paeoniflorin]",P*eff Colon,"rat intestine; co-administrated with SSA (20:20 μmol·L−1), colon",0.636 ± 0.034
same,P*eff Duodenum,"rat intestine; co-administrated with SSA (20:20 μmol·L−1), duodenum",0.279 ± 0.049
same,P*eff Ileum,"rat intestine; co-administrated with SSA (20:20 μmol·L−1), ileum",0.665 ± 0.053
same,P*eff Jejunum,"rat intestine; co-administrated with SSA (20:20 μmol·L−1), jejunum",0.263 ± 0.029
same,fold increase of 10% ABS vs individual compound,rat intestine; [1],1.25 fold
same,fold increase of P*eff vs individual compound,rat intestine; [1],1.90 fold
same,fold increase of 10% ABS vs individual compound,rat intestine; [2],1.40 fold
same,fold increase of P*eff vs individual compound,rat intestine; [2],2.11 fold and ~2.11 fold
same,P*eff Colon,"rat intestine; co-administrated with SSD, colon",0.696 ± 0.054
same,P*eff Duodenum,"rat intestine; co-administrated with SSD, duodenum",0.304 ± 0.048
same,P*eff Ileum,"rat intestine; co-administrated with SSD, ileum",0.731 ± 0.052
same,P*eff Jejunum,"rat intestine; co-administrated with SSD, jejunum",0.280 ± 0.051
same,10 cm % ABS Colon,"rat intestine; co-administration with SSA (20:20 μmol·L−1), colon, n = 4",12.07 ± 0.46 * %
same,10 cm % ABS Colon,"rat intestine; co-administration with SSA (20:20 μmol·L−1), colon, n = 4, listed as paeoniflorin",12.07 ± 0.46%
same,10 cm % ABS Duodenum,"rat intestine; co-administration with SSA (20:20 μmol·L−1), duodenum, n = 4",6.13 ± 1.82%
same,10 cm % ABS Ileum,"rat intestine; co-administration with SSA (20:20 μmol·L−1), ileum, n = 4",12.57 ± 0.36 * %
same,10 cm % ABS Ileum,"rat intestine; co-administration with SSA (20:20 μmol·L−1), ileum, n = 4, listed as paeoniflorin",12.57 ± 0.36%
same,10 cm % ABS Jejunum,"rat intestine; co-administration with SSA (20:20 μmol·L−1), jejunum, n = 4",4.78 ± 1.15%
same,fold increase of 10% ABS vs individual compound,rat intestine; [3],1.51 fold
same,fold increase of P*eff vs individual compound,rat intestine; [3],2.18 fold
same,10 cm % ABS Colon,"rat intestine; co-administration with SSD, colon, n = 4",13.48 ± 0.57 * %
same,10 cm % ABS Colon,"rat intestine; co-administration with SSD, colon, n = 4, listed as paeoniflorin",13.48 ± 0.57%
same,10 cm % ABS Duodenum,"rat intestine; co-administration with SSD, duodenum, n = 4",6.68 ± 1.91%
same,fold increase of 10% ABS vs individual compound,rat intestine; [4],1.63 fold
same,fold increase of P*eff vs individual compound,rat intestine; [4],2.42 fold and ~1.90 fold
same,10 cm % ABS Ileum,"rat intestine; co-administration with SSD, ileum, n = 4",13.75 ± 0.99 * %
same,10 cm % ABS Ileum,"rat intestine; co-administration with SSD, ileum, n = 4, listed as paeoniflorin",13.75 ± 0.99%
same,10 cm % ABS Jejunum,"rat intestine; co-administration with SSD, jejunum, n = 4",5.77 ± 1.39%
same,10 cm % ABS Colon,rat intestine; [5],5.37 ± 1.19%
same,P*eff Colon,rat intestine; [5],0.219 ± 0.051
same,P*eff Colon,"rat intestine; compound alone, 20 μmol·L−1, colon, n = 4, listed as paeoniflorin",0.219
same,10 cm % ABS Duodenum,rat intestine; [6],6.57 ± 0.98%
same,P*eff Duodenum,rat intestine; [6],0.268 ± 0.042
same,P*eff Duodenum,"rat intestine; compound alone, 20 μmol·L−1, duodenum, n = 4, listed as paeoniflorin",0.268
same,10 cm % ABS Ileum,rat intestine; [7],5.23 ± 0.49%
same,P*eff Ileum,rat intestine; [7],0.214 ± 0.021
same,P*eff Ileum,"rat intestine; compound alone, 20 μmol·L−1, ileum, n = 4, listed as paeoniflorin",0.214
same,10 cm % ABS Jejunum,rat intestine; [8],5.94 ± 0.70%
same,P*eff Jejunum,rat intestine; [8],0.243 ± 0.030
same,P*eff Jejunum,"rat intestine; compound alone, 20 μmol·L−1, jejunum, n = 4, listed as paeoniflorin",0.243
same,change of electric resistance values of Caco-2 cell membranes,Caco-2 cell; after individual paeoniflorin was transported,no significant change
same,change of electric resistance values of Caco-2 cell membranes,Caco-2 cell; paeoniflorin co-administered with saikosaponins,significantly decreased
"C[C@H]1O[C@@H](O[C@H]2CC[C@@]3(C)[C@@H](CC[C@]4(C)[C@@H]3C=C[C@]35OC[C@@]6(CCC(C)(C)C[C@H]63)[C@@H](O)C[C@]54C)[C@]2(C)CO)[C@H](O)[C@@H](O[C@@H]2O[C@H](CO)[C@@H](O)[C@H](O)[C@H]2O)[C@H]1O [SSA, saikosaponin a]",P*eff Colon,"rat intestine; co-administrated with paeoniflorin (20:20 μmol·L−1), colon",0.215 ± 0.030
same,P*eff Duodenum,"rat intestine; co-administrated with paeoniflorin (20:20 μmol·L−1), duodenum",0.193 ± 0.028
same,P*eff Ileum,"rat intestine; co-administrated with paeoniflorin (20:20 μmol·L−1), ileum",0.347 ± 0.036
same,P*eff Jejunum,"rat intestine; co-administrated with paeoniflorin (20:20 μmol·L−1), jejunum",0.194 ± 0.023
same,10 cm % ABS Colon,"rat intestine; co-administration with paeoniflorin (20:20 μmol·L−1), colon, n = 4",3.51 ± 0.73%
same,10 cm % ABS Duodenum,"rat intestine; co-administration with paeoniflorin (20:20 μmol·L−1), duodenum, n = 4",4.11 ± 0.30%
same,10 cm % ABS Ileum,"rat intestine; co-administration with paeoniflorin (20:20 μmol·L−1), ileum, n = 4",5.20 ± 0.67%
same,10 cm % ABS Jejunum,"rat intestine; co-administration with paeoniflorin (20:20 μmol·L−1), jejunum, n = 4",3.49 ± 0.61%
same,10 cm % ABS Colon,rat intestine; [5],3.84 ± 0.10%
same,P*eff Colon,rat intestine; [5],0.239 ± 0.042
same,10 cm % ABS Duodenum,rat intestine; [6],3.75 ± 0.57%
same,P*eff Duodenum,rat intestine; [6],0.193 ± 0.028
same,10 cm % ABS Ileum,rat intestine; [7],6.26 ± 0.56 * %
same,P*eff Ileum,rat intestine; [7],0.361 ± 0.014 *
same,10 cm % ABS Jejunum,rat intestine; [8],3.91 ± 0.60%
same,P*eff Jejunum,rat intestine; [8],0.207 ± 0.012
